Measurements: patent publication US7417054B2, “Naphthyridine compounds” (Janssen Pharmaceutica N.V., priority 2005, dated 2008)
Where a name gives a salt, the structure may show the parent alone. Read-outs that look alike come from different tables or passages of the source.

What was measured:
[1] = biological target: Rat SERT (Rattus norvegicus, UniProt P31652); experiment: Rat brain SERT binding, [3H]-Citalopram displacement on rat brain membranes
Description: The supernatant was removed and re-centrifuged at 15,000 rpm for 30 min. […] Membranes were incubated with 0.6 nM [^3H]-Citalopram plus/minus test compounds for 60 min at 25° C. and harvested by rapid filtration over GF/C glass fiber filters (pretreated with 0.3% polyethylenimine) followed by four washes with ice-cold buffer.

[2] = biological target: T1, human H3 receptor (Homo sapiens, UniProt Q9Y5N1); experiment: H3 receptor binding, N-[3H]-α-methylhistamine displacement on SK-N-MC cell membranes; details: cloned human H3 receptor in SK-N-MC cell membranes; 0.8 nM N-[3H]-α-methylhistamine; 60 min at 25° C.
T1 construct: expressed in transfected cells; host or cells: SK-N-MC cells

[3] = biological target: T2, human SERT (Homo sapiens, UniProt P31645); experiment: Human SERT binding, 3H-citalopram displacement on HEK293 membranes; details: HEK293 membranes expressing the human SERT, rt for 1 h
T2 construct: expressed in transfected cells; host or cells: HEK293
Description: Homogenized HEK293 (Human Embryonic Kidney) membranes expressing the human SERT were incubated with ^3H-citalopram (SERT) at rt for 1 h in 50 mM Tris, 120 mM NaCl, 5 mM KCl (pH 7.4). […] The membranes were washed and the radioactivity was counted as above.

[4] = Rat SERT Ki (nM), rat brain membranes without cerebellum, 0.6 nM [3H]-Citalopram, 60 min at 25° C.
[5] = read-out: Rat SERT Ki, rat brain membranes without cerebellum, 0.6 nM [3H]-Citalopram, 60 min at 25° C.

Sequence of Rat SERT (P31652 whole entry): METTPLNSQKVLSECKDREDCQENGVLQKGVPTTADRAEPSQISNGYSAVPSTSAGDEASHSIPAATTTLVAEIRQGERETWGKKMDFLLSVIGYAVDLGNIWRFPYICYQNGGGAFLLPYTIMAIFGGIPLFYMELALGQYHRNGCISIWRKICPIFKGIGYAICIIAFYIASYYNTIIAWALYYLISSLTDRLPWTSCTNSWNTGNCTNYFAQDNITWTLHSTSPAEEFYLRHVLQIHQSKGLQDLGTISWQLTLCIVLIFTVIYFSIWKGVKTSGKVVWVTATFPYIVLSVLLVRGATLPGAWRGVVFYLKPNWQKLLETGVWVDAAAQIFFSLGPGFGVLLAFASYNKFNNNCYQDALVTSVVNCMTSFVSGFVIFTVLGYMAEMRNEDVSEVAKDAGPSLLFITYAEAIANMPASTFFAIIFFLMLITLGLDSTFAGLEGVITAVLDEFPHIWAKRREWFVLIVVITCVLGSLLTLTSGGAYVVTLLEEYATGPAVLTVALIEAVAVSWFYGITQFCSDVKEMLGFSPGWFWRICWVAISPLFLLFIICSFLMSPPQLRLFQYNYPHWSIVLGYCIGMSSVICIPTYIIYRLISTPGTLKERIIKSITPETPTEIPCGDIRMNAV
T1 sequence (Q9Y5N1 whole entry): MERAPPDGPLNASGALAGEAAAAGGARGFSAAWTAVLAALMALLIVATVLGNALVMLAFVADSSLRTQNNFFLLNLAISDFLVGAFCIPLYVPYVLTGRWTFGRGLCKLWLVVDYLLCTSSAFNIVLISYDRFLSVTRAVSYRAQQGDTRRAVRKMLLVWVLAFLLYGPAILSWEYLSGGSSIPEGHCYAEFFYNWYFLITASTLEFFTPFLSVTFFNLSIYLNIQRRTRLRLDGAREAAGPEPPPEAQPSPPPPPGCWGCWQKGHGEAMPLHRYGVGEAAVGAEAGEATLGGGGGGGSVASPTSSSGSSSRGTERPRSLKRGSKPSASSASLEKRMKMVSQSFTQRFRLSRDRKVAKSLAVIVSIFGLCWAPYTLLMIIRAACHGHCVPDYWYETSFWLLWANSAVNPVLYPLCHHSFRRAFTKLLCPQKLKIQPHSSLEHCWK
T2 sequence (P31645 whole entry): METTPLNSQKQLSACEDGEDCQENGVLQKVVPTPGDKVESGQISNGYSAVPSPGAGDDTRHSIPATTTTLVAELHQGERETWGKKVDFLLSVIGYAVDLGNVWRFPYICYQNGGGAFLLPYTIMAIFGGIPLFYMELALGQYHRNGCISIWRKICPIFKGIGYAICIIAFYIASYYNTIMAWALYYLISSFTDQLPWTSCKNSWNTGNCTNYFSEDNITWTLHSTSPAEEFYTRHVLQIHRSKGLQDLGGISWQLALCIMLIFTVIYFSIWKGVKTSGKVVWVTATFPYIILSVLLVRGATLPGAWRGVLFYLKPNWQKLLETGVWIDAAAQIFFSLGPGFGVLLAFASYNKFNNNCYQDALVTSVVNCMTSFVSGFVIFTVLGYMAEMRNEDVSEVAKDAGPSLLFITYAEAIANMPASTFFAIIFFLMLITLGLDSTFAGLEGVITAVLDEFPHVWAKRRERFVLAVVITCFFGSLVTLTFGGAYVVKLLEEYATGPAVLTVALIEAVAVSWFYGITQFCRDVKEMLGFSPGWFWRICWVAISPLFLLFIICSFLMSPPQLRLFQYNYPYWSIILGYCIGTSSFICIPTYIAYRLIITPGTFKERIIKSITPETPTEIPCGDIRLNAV

CN1Cc2cc(OCCCN3CCCCC3)ncc2C(c2ccc(Cl)c(Cl)c2)C1 (single isomer, unassigned; enantiomer a) [Example 38, 4-(3,4-Dichloro-phenyl)-2-methyl-7-(3-piperidin-1-yl-propoxy)-1,2,3,4-tetrahydro-[2,6]-naphthyridine (enantiomer A)]
Ki [1, 4]: 56 nM
Ki [2]: 50 nM

Clc1ccc(C2CNCc3cc(OCCCN4CCCCC4)ncc32)cc1Cl (single isomer, unassigned; enantiomer a) [Example 45, 4-(3,4-Dichloro-phenyl)-7-(3-piperidin-1-yl-propoxy)-1,2,3,4-tetrahydro-[2,6]-naphthyridine (enantiomer A)]
Ki [1]: 101 nM
Ki [2]: 4 nM

CN1Cc2cc(OCCCN3CCCCC3)ncc2C(c2ccc(Cl)c(Cl)c2)C1 (single isomer, unassigned; enantiomer b) [Example 39, 4-(3,4-Dichloro-phenyl)-2-methyl-7-(3-piperidin-1-yl-propoxy)-1,2,3,4-tetrahydro-[2,6]-naphthyridine (enantiomer B)]
Ki [1, 4]: 233 nM
Ki [2]: 42 nM

Clc1ccc(C2CNCc3cc(OCCCN4CCCCC4)ncc32)cc1Cl (single isomer, unassigned; enantiomer b) [Example 46, 4-(3,4-Dichloro-phenyl)-7-(3-piperidin-1-yl-propoxy)-1,2,3,4-tetrahydro-[2,6]-naphthyridine (enantiomer B)]
Ki [1, 4]: 17 nM
Ki [3]: 16 nM
Ki [2]: 13 nM

CN1Cc2cc(OCCCN3CCCCC3)ncc2C(c2ccccc2)C1 (centres unmarked) [Example 3, 2-Methyl-4-phenyl-7-(3-piperidin-1-yl-propoxy)-1,2,3,4-tetrahydro-[2,6]-naphthyridine]
Ki [1, 5]: 569 nM
Ki [3]: 1140 nM
Ki [2]: 5 nM

COc1ccc(C2CN(C)Cc3cc(OCCCN4CCCCC4)ncc32)cc1 (centres unmarked) [Example 8, 4-(4-Methoxy-phenyl)-2-methyl-7-(3-piperidin-1-yl-propoxy)-1,2,3,4-tetrahydro-[2,6]-naphthyridine]
Ki [1, 5]: 34 nM
Ki [3]: 107 nM
Ki [2]: 12 nM

COc1ccc(C2CNCc3cc(OCCC4CCCN4C)ncc32)cc1 (centres unmarked) [Example 9, 4-(4-Methoxy-phenyl)-7-[2-(1-methyl-pyrrolidin-2-yl)-ethoxy]-1,2,3,4-tetrahydro-[2,6]-naphthyridine]
Ki [1, 4]: 43 nM
Ki [2]: 3 nM

COc1ccc(C2CN(C)Cc3cc(OCCC4CCCN4C)ncc32)cc1 (centres unmarked) [Example 10, 4-(4-Methoxy-phenyl)-2-methyl-7-[2-(1-methyl-pyrrolidin-2-yl)-ethoxy]-1,2,3,4-tetrahydro-[2,6]-naphthyridine]
Ki [1]: 20 nM
Ki [2]: 4 nM

COc1ccc(C2CNCc3cc(OCCCN4CCOCC4)ncc32)cc1 (centres unmarked) [Example 11, 4-(4-Methoxy-phenyl)-7-(3-morpholin-4-yl-propoxy)-1,2,3,4-tetrahydro-[2,6]-naphthyridine]
Ki [1, 5]: 53 nM
Ki [3]: 189 nM
Ki [2]: 43 nM

COc1ccc(C2CN(C)Cc3cc(OCCCN4CCOCC4)ncc32)cc1 (centres unmarked) [Example 12, 4-(4-Methoxy-phenyl)-2-methyl-7-(3-morpholin-4-yl-propoxy)-1,2,3,4-tetrahydro-[2,6]-naphthyridine]
Ki [1, 5]: 29 nM
Ki [3]: 70 nM
Ki [2]: 90 nM

COc1cccc(C2CN(C)Cc3cc(OCCCN4CCCCC4)ncc32)c1 (centres unmarked) [Example 14, 4-(3-Methoxy-phenyl)-2-methyl-7-(3-piperidin-1-yl-propoxy)-1,2,3,4-tetrahydro-[2,6]-naphthyridine]
Ki [1, 5]: 59 nM
Ki [3]: 303 nM
Ki [2]: 8 nM

COc1ccc(C2CNCc3cc(OCCCN4CCC(F)(F)CC4)ncc32)cc1 (centres unmarked) [Example 19, 7-[3-(4,4-Difluoro-piperidin-1-yl)-propoxy]-4-(4-methoxy-phenyl)-1,2,3,4-tetrahydro-[2,6]-naphthyridine]
Ki [1]: 56 nM
Ki [3]: 51 nM
Ki [2]: 208 nM

CCN(CC)CCCOc1cc2c(cn1)C(c1ccc(OC)cc1)CNC2 (centres unmarked) [Example 20, Diethyl-{3-[8-(4-methoxy-phenyl)-5,6,7,8-tetrahydro-[2,6]naphthyridin-3-yloxy]-propyl}-amine]
Ki [1, 5]: 129 nM
Ki [3]: 226 nM
Ki [2]: 23 nM

COc1ccc(C2CNCc3cc(OC4CCN(Cc5ccccc5)CC4)ncc32)cc1 (centres unmarked) [Example 22, 7-(1-Benzyl-piperidin-4-yloxy)-4-(4-methoxy-phenyl)-1,2,3,4-tetrahydro-[2,6]-naphthyridine]
Ki [1]: 87 nM

Clc1ccc(C2CNCc3cc(OCCCN4CCOCC4)ncc32)cc1Cl (centres unmarked) [Example 26, 4-(3,4-Dichloro-phenyl)-7-(3-morpholin-4-yl-propoxy)-1,2,3,4-tetrahydro-[2,6]-naphthyridine]
Ki [1, 4]: 64 nM
Ki [3]: 611 nM
Ki [2]: 44 nM

CN1Cc2cc(OCCCN3CCCCC3)ncc2C(c2cccc(Cl)c2)C1 (centres unmarked) [Example 27, 4-(3-Chloro-phenyl)-2-methyl-7-(3-piperidin-1-yl-propoxy)-1,2,3,4-tetrahydro-[2,6]-naphthyridine]
Ki [1, 5]: 144 nM
Ki [3]: 826 nM
Ki [2]: 7 nM

COc1ccc(C2CN(C)Cc3cc(OCCCN4CCC(F)(F)CC4)ncc32)cc1 (centres unmarked) [Example 28, 7-[3-(4,4-Difluoro-piperidin-1-yl)-propoxy]-4-(4-methoxy-phenyl)-2-methyl-1,2,3,4-tetrahydro-[2,6]naphthyridine]
Ki [1, 4]: 129 nM
Ki [2]: 264 nM

CCN(CC)CCCOc1cc2c(cn1)C(c1ccc(OC)cc1)CN(C)C2 (centres unmarked) [Example 29, Diethyl-{3-[8-(4-methoxy-phenyl)-6-methyl-5,6,7,8-tetrahydro-[2,6]naphthyridin-3-yloxy]-propyl}-amine]
Ki [1, 5]: 19 nM
Ki [3]: 66 nM
Ki [2]: 13 nM

CCN(CC)CCCOc1cc2c(cn1)C(c1ccc(Cl)c(Cl)c1)CN(C)C2 (centres unmarked) [Example 30, {3-[8-(3,4-Dichloro-phenyl)-6-methyl-5,6,7,8-tetrahydro-[2,6]naphthyridin-3-yloxy]-propyl}-diethyl-amine]
Ki [1, 5]: 33 nM
Ki [3]: 30 nM
Ki [2]: 16 nM

CN1Cc2cc(OCCCN3CCCCC3)ncc2C(c2ccc(F)c(Cl)c2)C1 (centres unmarked) [Example 35, 4-(3-Chloro-4-fluoro-phenyl)-2-methyl-7-(3-piperidin-1-yl-propoxy)-1,2,3,4-tetrahydro-[2,6]naphthyridine]
Ki [1]: 26 nM
Ki [3]: 147 nM
Ki [2]: 7 nM

CN1Cc2cc(OCCCN3CCCCC3)ncc2C(c2ccc(Cl)cc2)C1 (centres unmarked) [Example 36, 4-(4-Chloro-phenyl)-2-methyl-7-(3-piperidin-1-yl-propoxy)-1,2,3,4-tetrahydro-[2,6]naphthyridine]
Ki [1, 5]: 22 nM
Ki [3]: 106 nM
Ki [2]: 15 nM

COc1ccc(C2CN(C)Cc3cc(OCC4CCN(C(C)C)CC4)ncc32)cc1 (centres unmarked) [Example 40, 7-(1-Isopropyl-piperidin-4-ylmethoxy)-4-(4-methoxy-phenyl)-2-methyl-1,2,3,4-tetrahydro-[2,6]-naphthyridine]
Ki [1, 5]: 45 nM
Ki [3]: 62 nM
Ki [2]: 13 nM

CC(C)N1CCC(COc2cc3c(cn2)C(c2ccc(Cl)c(Cl)c2)CN(C)C3)CC1 (centres unmarked) [Example 41, 4-(3,4-Dichloro-phenyl)-7-(1-isopropyl-piperidin-4-ylmethoxy)-2-methyl-1,2,3,4-tetrahydro-[2,6]naphthyridine]
Ki [1, 5]: 23 nM
Ki [3]: 31 nM
Ki [2]: 13 nM

COc1ccc(C2CNCc3cc(OC4CCNCC4)ncc32)cc1 (centres unmarked) [Example 42, 4-(4-Methoxy-phenyl)-7-(piperidin-4-yloxy)-1,2,3,4-tetrahydro-[2,6]naphthyridine]
Ki [1]: 106 nM

COc1ccc(C2CN(C)Cc3cc(OC4CCN(C)CC4)ncc32)cc1 (centres unmarked) [Example 43, 4-(4-Methoxy-phenyl)-2-methyl-7-(1-methyl-piperidin-4-yloxy)-1,2,3,4-tetrahydro-[2,6]naphthyridine]
Ki [1]: 137 nM
Ki [3]: 1020 nM
Ki [2]: 796 nM

FC(F)(F)Oc1ccc(C2CNCc3cc(OCCCN4CCCCC4)ncc32)cc1 (centres unmarked) [Example 44, 7-(3-Piperidin-1-yl-propoxy)-4-(4-trifluoromethoxy-phenyl)-1,2,3,4-tetrahydro-[2,6]naphthyridine]
Ki [1]: 74 nM
Ki [3]: 70 nM
Ki [2]: 18 nM

COc1ccc(C2CN(C)Cc3cc(C#CCCN4CCCCC4)cnc32)cc1 (centres unmarked) [Example 48, 8-(4-Methoxy-phenyl)-6-methyl-3-(4-piperidin-1-yl-but-1-ynyl)-5,6,7,8-tetrahydro-[1,6]naphthyridine trifluoroacetic acid salt]
Ki [1]: 1000 nM
Ki [3]: 2000 nM
Ki [2]: 45 nM

COc1ccc(C2CN(C)Cc3cc(CCCCN4CCCCC4)cnc32)cc1 (centres unmarked) [Example 49, 8-(4-Methoxy-phenyl)-6-methyl-3-(4-piperidin-1-yl-butyl)-5,6,7,8-tetrahydro-[1,6]-naphthyridine trifluoroacetic acid salt]
Ki [1]: 623 nM
Ki [3]: 2000 nM
Ki [2]: 78 nM

COc1ccc(C2CN(C)Cc3nc(OCCCN4CCCCC4)ccc32)cc1 (centres unmarked) [Example 50, 5-(4-Methoxy-phenyl)-7-methyl-2-(3-piperidin-1-yl-propoxy)-5,6,7,8-tetrahydro-[1,7]naphthyridine]
Ki [1]: 4 nM
Ki [3]: 7 nM
Ki [2]: 1 nM

COc1ccc(C2CN(C)Cc3nc(C#CCCN4CCCCC4)ccc32)cc1 (centres unmarked) [Example 51, 5-(4-Methoxy-phenyl)-7-methyl-2-(4-piperidin-1-yl-but-1-ynyl)-5,6,7,8-tetrahydro-[1,7]naphthyridine]
Ki [1]: 21 nM
Ki [3]: 32 nM
Ki [2]: 11 nM
